Measured values from US20110144160A1, “Antagonists of Prostaglandin D2 Receptors” (Amira Pharmaceuticals, Inc., priority 2008, published 2011).

Each compound was assayed against T1, human DP2 receptor (Homo sapiens, UniProt Q9Y5Y4) (assay: DP2/CRTH2 binding assay ([3H]PGD2 radioligand)). Settings: membranes of HEK293 cells expressing recombinant human DP2, 1 nM [3H]PGD2; read-out: hDP2.
T1 construct: expressed in transfected cells
T1 sequence (Q9Y5Y4 1-395): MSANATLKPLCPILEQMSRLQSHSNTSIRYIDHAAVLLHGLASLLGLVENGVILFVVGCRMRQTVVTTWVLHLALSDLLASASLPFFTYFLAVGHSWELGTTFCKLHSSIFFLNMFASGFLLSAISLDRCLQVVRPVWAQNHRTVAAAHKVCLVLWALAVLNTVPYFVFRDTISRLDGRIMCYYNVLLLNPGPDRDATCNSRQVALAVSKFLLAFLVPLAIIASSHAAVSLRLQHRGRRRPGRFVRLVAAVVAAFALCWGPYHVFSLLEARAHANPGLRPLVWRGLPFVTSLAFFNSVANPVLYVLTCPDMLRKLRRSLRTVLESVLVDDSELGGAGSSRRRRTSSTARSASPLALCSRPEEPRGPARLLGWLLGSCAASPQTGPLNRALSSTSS
Method: The ability of a compound to bind to the human DP2 receptor is assessed via a radioligand binding assay using [^3H]PGD2. HEK293 cells stably expressing recombinant human DP2 are resuspended in 10 mM Hepes, 7.4 containing 1 mM DTT, lysed and centrifuged at 75,000×g to pellet the membranes. The membranes are resuspended in 10 mM Hepes, 7.4 containing 1 mM DTT and 10% glycerol to approximately 5 mg protein/ml. Membranes (2-10 μg protein/well) are incubated in 96-well plates with 1 nM [^3H]PGD2 and test compound in Assay Buffer (50 mM Hepes, 10 mM MnCl2, 1 mM EDTA, plus or minus 0.2% human serum albumin, pH 7.4) for 60 minutes at room temperature. The reactions are terminated by rapid filtration through Whatman GF/C glass fibre filter plates. The filter plates were pre-soaked in 0.33% polythylenimine for 30 minutes at room temperature then washed in Wash Buffer (50 mM Hepes, 0.5 M NaCl pH 7.4) prior to harvesting. After harvesting, the filter plates are washed 3 times with 1 ml cold Wash Buffer then dried. Scintillant is then added to the plates and the radioactivity retained on the filters is determined on a Packard TopCount (Perkin Elmer). Specific binding is determined as total radioactive binding minus non-specific binding in the presence of 10 μM PGD2. IC50s were determined using GraphPad prism analysis of drug titration curves.

IC50 [nM] | Structure (SMILES)
< 300 | COc1ccc(CC(=O)O)cc1Oc1ccc(NC(=O)NCc2ccccc2)cc1CSCC(F)(F)F [Compound 3, {3-[4-(3-benzyl-ureido)-2-(2,2,2-trifluoro-ethylsulfanylmethyl)-phenoxy]-4-methoxy-phenyl}-acetic acid]
< 300 | COc1ccc(CC(=O)O)cc1Oc1ccc(NC(=O)c2ccc(Cl)cc2)cc1CSc1ccc(Cl)cc1 [Compound 4, {3-[4-(4-Chloro-benzoylamino)-2-(4-chloro-phenylsulfanylmethyl)-phenoxy]-4-methoxy-phenyl}-acetic acid]
< 300 | COc1ccc(CC(=O)O)cc1Oc1ccc(NC(=O)C(C)(C)C)cc1CSc1ccc(Cl)cc1 [Compound 5, {3-[2-(4-chloro-phenylsulfanylmethyl)-4-(2,2-dimethyl-propionylamino)-phenoxy]-4-methoxy-phenyl}-acetic acid]
< 300 | COc1ccc(CC(=O)O)cc1Oc1ccc(NC(=O)NCc2ccccc2)cc1CSc1ccc(Cl)cc1 [Compound 6, {3-[4-(3-benzyl-ureido)-2-(4-chloro-phenylsulfanylmethyl)-phenoxy]-4-methoxy-phenyl}-acetic acid]
< 300 | COc1ccc(CC(=O)O)cc1Oc1ccc(NC(=O)c2ccc(Cl)cc2)cc1CSC(C)(C)C [Compound 8, {3-[2-tert-butylsulfanylmethyl-4-(4-chloro-benzoylamino)-phenoxy]-4-methoxy-phenyl}-acetic acid]
< 300 | COc1ccc(CC(=O)O)cc1Oc1ccc(NC(=O)C(C)(C)C)cc1CSC(C)C [Compound 9, {3-[4-(2,2-Dimethyl-propionylamino)-2-isopropylsulfanylmethyl-phenoxy]-4-methoxy-phenyl}-acetic acid]
< 300 | COc1ccc(CC(=O)O)cc1Oc1ccc(NC(=O)C(C)(C)C)cc1CS(=O)(=O)C(C)C [Compound 10, {3-[4-(2,2-Dimethyl-propionylamino)-2-(propane-2-sulfonylmethyl)-phenoxy]-4-methoxy-phenyl}-acetic acid]
< 300 | COc1ccc(CC(=O)O)cc1Oc1ccc(NC(=O)C(C)(C)C)cc1C[S+]([O-])C(C)C (stereo not drawn) [Compound 11, {3-[4-(2,2-Dimethyl-propionylamino)-2-(propane-2-sulfinylmethyl)-phenoxy]-4-methoxy-phenyl}-acetic acid]
< 300 | COc1ccc(CC(=O)O)cc1Oc1ccc(NC(=O)C(C)(C)C)cc1CS(=O)(=O)CC(F)(F)F [Compound 12, {3-[4-(2,2-Dimethyl-propionylamino)-2-(trifluoro-ethanesulfonylmethyl)-phenoxy]-4-methoxy-phenyl}-acetic acid]
< 300 | COc1ccc(CC(=O)O)cc1Oc1ccc(NC(=O)NCc2ccccc2)cc1CSC(C)(C)C [Compound 13, {3-[4-(3-benzyl-ureido)-2-tert-butylsulfanylmethyl-phenoxy]-4-methoxy-phenyl}-acetic acid]
< 300 | COc1ccc(CC(=O)O)cc1Oc1ccc(NC(=O)C2CC2)cc1CSCC(F)(F)F [Compound 14, {3-[4-(Cyclopropanecarbonyl-amino)-2-(2,2,2-trifluoro-ethylsulfanylmethyl)-phenoxy]-4-methoxy-phenyl}-acetic acid]
< 300 | COc1ccc(CC(=O)O)cc1Oc1ccc(NC(=O)C(C)C)cc1CSCC(F)(F)F [Compound 15, {3-[4-isobutyrylamino-2-(2,2,2-trifluoro-ethylsulfanylmethyl)-phenoxy]-4-methoxy-phenyl}-acetic acid]
< 300 | COc1ccc(CC(=O)O)cc1Oc1ccc(NC(=O)CC(C)(C)C)cc1CSCC(F)(F)F [Compound 16, {3-[4-(3,3-Dimethyl-butyrylamino)-2-(2,2,2-trifluoro-ethylsulfanylmethyl)-phenoxy]-4-methoxy-phenyl}-acetic acid]
< 300 | COc1ccc(CC(=O)O)cc1Oc1ccc(NC(=O)c2ccc(Cl)cc2)cc1CSC(C)C [Compound 20, {3-[4-(4-Chloro-benzoylamino)-2-isopropylsulfanylmethyl-phenoxy]-4-methoxy-phenyl}-acetic acid]
< 300 | COc1ccc(CC(=O)O)cc1Oc1ccc(NC(=O)c2ccc(Cl)cc2)cc1C[S+]([O-])C(C)C (stereo not drawn) [Compound 21, {3-[4-(4-Chloro-benzoylamino)-2-(propane-2-sulfinylmethyl)-phenoxy]-4-methoxy-phenyl}-acetic acid]
< 300 | COc1ccc(CC(=O)O)cc1Oc1ccc(NC(=O)c2ccc(Cl)cc2)cc1CS(=O)(=O)C(C)C [Compound 22, {3-[4-(4-Chloro-benzoylamino)-2-(propane-2-sulfonylmethyl)-phenoxy]-4-methoxy-phenyl}-acetic acid]
< 300 | COc1ccc(CC(=O)O)cc1Oc1ccc(NC(=O)c2ccc(Cl)cc2)cc1C[S+]([O-])c1ccccc1 (stereo not drawn) [Compound 23, {3-[2-Benzenesulfinylmethyl-4-(4-chloro-benzoylamino)-phenoxy]-4-methoxy-phenyl}-acetic acid]
< 300 | COc1ccc(CC(=O)O)cc1Oc1ccc(NC(=O)c2ccc(Cl)cc2)cc1CS(=O)(=O)c1ccccc1 [Compound 24, {3-[2-Benzenesulfonylmethyl-4-(4-chloro-benzoylamino)-phenoxy]-4-methoxy-phenyl}-acetic acid]
< 300 | CCNC(=O)c1ccc(Oc2cc(CC(=O)O)ccc2OC)c(CSC(C)C)c1 [Compound 25, [3-(4-Ethylcarbamoyl-2-isopropylsulfanylmethyl-phenoxy)-4-methoxy-phenyl]-acetic acid]
< 300 | COc1ccc(CC(=O)O)cc1Oc1ccc(C(=O)NCc2ccc(Cl)cc2)cc1CSC(C)C [Compound 26, {3-[4-(4-Chloro-benzylcarbamoyl)-2-isopropylsulfanylmethyl-phenoxy]-4-methoxy-phenyl}-acetic acid]
< 300 | COc1ccc(CC(=O)O)cc1Oc1ccc(C(=O)NCCc2ccc(F)cc2)cc1CSC(C)C [Compound 27, (3-{4-[2-(4-Fluoro-phenyl)-ethylcarbamoyl]-2-isopropylsulfanylmethyl-phenoxy}-4-methoxy-phenyl)-acetic acid]
< 300 | CC(C)(C)C(=O)Nc1ccc(Oc2cc(Cl)cc(CC(=O)O)c2)c(CSCC(F)(F)F)c1 [Compound 28, {3-Chloro-5-[4-(2,2-dimethyl-propionylamino)-2-(2,2,2-trifluoro-ethylsulfanylmethyl)-phenoxy]-phenyl}-acetic acid]
< 300 | CC(C)(C)C(=O)Nc1ccc(Oc2cc(Cl)cc(CC(=O)O)c2)c(CS(=O)(=O)CC(F)(F)F)c1 [Compound 29, {3-Chloro-5-[4-(2,2-dimethyl-propionylamino)-2-(trifluoro-ethanesulfonylmethyl)-phenoxy]-phenyl}-acetic acid]
< 300 | CC(C)S(=O)(=O)Cc1cc(NC(=O)C(C)(C)C)ccc1Oc1cc(Cl)cc(CC(=O)O)c1 [Compound 31, {3-Chloro-5-[4-(2,2-dimethyl-propionylamino)-2-(propane-2-sulfonylmethyl)-phenoxy]-phenyl}-acetic acid]
< 300 | CC(C)(C)C(=O)Nc1ccc(Oc2cc(CC(=O)O)cc(C(F)(F)F)c2)c(CS(=O)(=O)CC(F)(F)F)c1 [Compound 33, {3-[4-(2,2-Dimethyl-propionylamino)-2-(trifluoro-ethanesulfonylmethyl)-phenoxy]-5-trifluoromethyl-phenyl}-acetic acid]
< 300 | COc1ccc(CC(=O)O)cc1Oc1ccc(N(C)C(=O)C(C)(C)C)cc1CSCC(F)(F)F [Compound 34, {3-[4-[(2,2-Dimethyl-propionyl)-methyl-amino]-2-(2,2,2-trifluoro-ethylsulfanylmethyl)-phenoxy]-4-methoxy-phenyl}-acetic acid]
< 300 | COc1ccc(CC(=O)O)cc1Oc1ccc(NC(=O)C2CC2)cc1CSC(C)(C)C [Compound 35, {3-[2-tert-butylsulfanylmethyl-4-(cyclopropanecarbonyl-amino)-phenoxy]-4-methoxy-phenyl}-acetic acid]
< 300 | COc1ccc(CC(=O)O)cc1Oc1ccc(NC(=O)C(C)C)cc1CSC(C)(C)C [Compound 36, [3-(2-tert-Butylsulfanylmethyl-4-isobutyrylamino-phenoxy)-4-methoxy-phenyl]-acetic acid]
< 300 | COc1ccc(CC(=O)O)cc1Oc1ccc(NC(=O)CC(C)(C)C)cc1CSC(C)(C)C [Compound 37, {3-[2-tert-Butylsulfanylmethyl-4-(3,3-dimethyl-butyrylamino)-phenoxy]-4-methoxy-phenyl}-acetic acid]
300 to 1000 | COc1ccc(CC(=O)O)cc1Oc1ccc(N2CCOC2=O)cc1CSCC(F)(F)F [Compound 38, {4-Methoxy-3-[4-(2-oxo-oxazolidin-3-yl)-2-(2,2,2-trifluoro-ethylsulfanylmethyl)-phenoxy}-phenyl]-acetic acid]
